Test results from paper PMC11799252, “The differentiation state of small intestinal organoid models influences prediction of drug-induced toxicity” (Frontiers in Cell and Developmental Biology, 2025).
Where two headings read alike, the source gives them in different places.

Tests used:
[1] = system: proliferative duodenum organoids; experiment: Cell viability (Cell Titer Glo 3D, ATP) in proliferative organoid model; settings: for IC50: Homo sapiens, 72 h, read-out: IC50 (μM) Prolif.
Description: (§1) Organoids were grown for 7–10 days then dissociated using TrypLE™ Express Enzyme, as described above. Single cells were resuspended in BME at a density of 5–6 × 10^5 cells/mL on ice and plated as 5 μL/well domes in clear-bottom 96-well plates (Corning). The domes were cured for 10–15 min at 37°C and overlaid with 100 μL of growth media replaced every 2–3 days.
(§2) Compounds were administered after 5–6 days in growth medium for proliferative organoids or after an additional 4 days in differentiation medium for differentiated organoids. Organoid media was replaced with 90 μL fresh media immediately prior to dosing. Compounds were diluted in growth or differentiation medium and administered as a 5-fold dilution series at 5-8 concentrations with corresponding 0.5% DMSO vehicle control (1% DMSO for aspirin), at 10 μL/well in triplicate. […] After 3 days of treatment, cultures were imaged by brightfield microscopy (THUNDER DMi8 inverted light microscope with a 2.5× objective and a DFC9000 GTC camera (Leica)). Wells were precluded from analysis on visual quality control (i.e., organoid loss due to BME degradation/dislodging or insufficient seeding density) congruent with cytotoxicity analysis. An equal volume of Cell Titer Glo 3D Reagent (Promega) was added to each well as described by the manufacturer’s instructions. Luminescence was measured on EnSight and EnVision (Perkin Elmer) plate readers and normalized to on-plate vehicle controls (0.5%–1% DMSO) in corresponding growth or differentiation medium. Experiments were conducted in technical triplicates and repeated in organoids from 3 different donors (donor demographics noted in Supplementary Table S1). Normalized viability was averaged at each concentration for each donor, and mean of donors was fit to a 4-Parameter Logistic (4PL) curve using Prism (GraphPad) to estimate the half-maximal inhibitory concentration (IC50) for each compound.
(§3) To compare toxicity responses of proliferative and differentiated organoids, proliferative organoids were grown 5–6 days in OGM prior to dosing, while differentiated organoids were transitioned to ODM for an additional 4 days prior to dosing (Figure 2A). Both proliferative and differentiated organoids were incubated with compounds or a 0.5%–1% DMSO vehicle control (as indicated) for 3 days prior to measuring ATP levels as a readout for cell viability. […] Compound-treated organoid ATP readouts were normalized to vehicle controls and a half-maximal inhibitory concentration (IC50) was calculated from dose-response curves of organoid viability for five compounds across 3 donor organoid lines.

[2] = system: differentiated duodenum organoids; experiment: Cell viability (Cell Titer Glo 3D, ATP) in differentiated organoid model; settings: for IC50: Homo sapiens, read-out: IC50 (μM) Diff.
Description: as §1, §2, §3

[3] = clinical, cited from earlier work
[4] = clinical plasma, cited from earlier work
[5] = Cell viability (Cell Titer Glo 3D, ATP) in differentiated organoid model; settings: human, differentiated duodenum organoids
Description: as §1, §2, §3

[6] = patients, ref Peters et al., 2019
[7] = ref Peters et al., 2019, 2020, Belair et al.

CN(C)C/C=C/C(=O)Nc1cc2c(Nc3ccc(F)c(Cl)c3)ncnc2cc1O[C@H]1CCOC1 [afatinib]
IC50 [1]: 0.036 µM
IC50 [2]: 4.16 µM
fold increase in IC50, differentiated vs proliferative organoids ([2]; IC50 differentiated / IC50 proliferative): over 100 fold
Incidence of Diarrhea (%) [3, 6]: 96%
Cmax [4, 7]: 0.078 µM

CC(=O)Oc1ccccc1C(=O)O [aspirin, Acetylsalicylic acid]
decline in viability ([1]; 200 µM, proliferative organoids, 3 days): no decline
IC50 [1]: 1770 µM
decreases in viability ([1]; below 100 µM, proliferative organoids, 3 days): minimal
IC50/Cmax Prolif. ([1]; human, 3 days): 65.9
cytotoxicity at 3 days, 200 µM [5]: ~25%
IC50 [2]: 626 µM
decreases in viability ([2]; below 100 µM, differentiated organoids, 3 days): minimal
IC50/Cmax Diff. ([2]; human, 3 days): 23.3
Incidence of Diarrhea (%) ([3]; oral dosing, ref Rampal et al., 2001): less than 2%
Incidence of Diarrhea (%) ([3]; oral dosing, ref Rampal et al., 2001, listed as Aspirin): 1.8%
Cmax ([4]; high-dose oral administration, ref Nagelschmitz et al. (2014)): 26.9 µM

CNC(=O)c1cc(Oc2ccc(NC(=O)Nc3ccc(Cl)c(C(F)(F)F)c3)cc2)ccn1 [sorafenib]
IC50 [1]: 10 µM
IC50 [2]: 8.42 µM
Incidence of Diarrhea (%) [3, 6]: 43%
Cmax [4, 7]: 6.2 µM

COc1cc2c(c(OC)c1OC)-c1ccc(OC)c(=O)cc1[C@@H](NC(C)=O)CC2 [colchicine]
Cmax [4, 7]: 0.017 µM
